≈ marks a conversion by molar mass, not a printed value.
Assays:
Format in all cases: cell-based, Plasmodium falciparum
[1] = tested on: P. falciparum C235; experiment: Malaria SYBR Green Fluorescence Assay, C235 strain
[2] = tested on: P. falciparum W2; experiment: Malaria SYBR Green Fluorescence Assay, W2 strain
[3] = tested on: P. falciparum D6; experiment: Malaria SYBR Green Fluorescence Assay, D6 strain
[4] = Plasmodium falciparum, SYBR Green Assay

Row | Compound | C235 ([1]; SYBR Green Assay) [ng/mL] | W2 ([2]; SYBR Green Assay) [ng/mL] | D6 ([3]; SYBR Green Assay) [ng/mL] | C235 (SYBR Green Assay IC50) [1] [µg/mL] | W2 (SYBR Green Assay IC50) [2] [µg/mL] | D6 (SYBR Green Assay IC50) [3] [µg/mL] | further results
1 | COc1ccc(-c2nc(N3CCCNCC3)nc(C(Cl)(Cl)Cl)n2)c2ccccc12 [Cmpd 281] | 205 | 66 | 148 | – | – | – | –
2 | Clc1cc(Cl)cc(-c2nc(NCc3cccnc3)nc(C(Cl)(Cl)Cl)n2)c1 [Cmpd 209] | 112 | 67 | 122 | – | – | – | –
3 | FC(F)(F)OC1═CC═C(NC2═NC(═NC(NCCCN3CCCC3)═N2)C(Cl)(Cl)Cl)C═C1 [Compound 657] | 731 | 390 | 535 | – | – | – | –
4 | OCCN1CCCN(c2nc(-c3ccccc3)nc(C(Cl)(Cl)Cl)n2)CC1 [Cmpd 458] | – | – | – | 0.116 | 0.044 | 0.172 | –
5 | ClC(Cl)(Cl)c1nc(NCCc2ccncc2)nc(-c2ccc3ccccc3c2)n1 [Cmpd 230] | 212 | 59 | 246 | – | – | – | –
6 | COc1ccc(-c2nc(N3CCCN(C)CC3)nc(C(Cl)(Cl)Cl)n2)cc1 [Cmpd 111] | 232 | 103 | 191 | – | – | – | –
7 | CCN1CCCC(Nc2nc(Nc3ccc(OC)nc3)nc(C(Cl)(Cl)Cl)n2)C1 (stereo not drawn) [Cmpd 344] | 98 | 34 | 80 | – | – | – | –
8 | Clc1ccc(cc1)c2nc(nc(n2)C(Cl)(Cl)Cl)N3CC4CC3CN4 [Compound 717] | 264 | 163 | 259 | – | – | – | –
9 | ClC(Cl)(Cl)c1nc(NCCCN2CCCC2)nc(-c2ccc(-c3ccccc3)cc2)n1 [Cmpd 197] | 137 | 105 | 128 | – | – | – | –
10 | CN(CCc1ccccn1)c1nc(-c2cc(Cl)cc(Cl)c2)nc(C(Cl)(Cl)Cl)n1 [Cmpd 474] | – | – | – | 0.527 | 0.208 | 0.065 | –
11 | COc1ccccc1-c1nc(NCCCN2CCCC2)nc(C(Cl)(Cl)Cl)n1 [Cmpd 105] | 93 | 73 | 145 | – | – | – | –
12 | CCN(CC)CCNc1nc(-c2cc(OC)cc(OC)c2)nc(C(Cl)(Cl)Cl)n1 [Cmpd 479] | – | – | – | 0.017 | 0.012 | 0.038 | –
13 | Cc1ccc(-c2ccccc2-c2nc(NCc3ccncc3)nc(C(Cl)(Cl)Cl)n2)cc1 [Cmpd 299] | 311 | 148 | 195 | – | – | – | –
14 | CN(C)CCCNc1nc(-c2ccc(Cl)cc2)nc(C(Cl)(Cl)Cl)n1 [Cmpd 560] | – | – | – | 0.018 | 0.009 | 0.02 | –
15 | CCN(CC)CCNc1nc(-c2ccccc2-c2ccc(C)cc2)nc(C(Cl)(Cl)Cl)n1 [Cmpd 254] | 462 | 492 | 632 | – | – | – | –
16 | COc1cccc(-c2nc(NCCc3ccncc3)nc(C(Cl)(Cl)Cl)n2)c1 [Cmpd 151] | 549 | 133 | 346 | – | – | – | –
17 | NC1CCN(c2nc(-c3ccccc3)nc(C(Cl)(Cl)Cl)n2)CC1 [Compound 621, NC1CCN(CC1)C1═NC(═NC(═N1)C1═CC═CC═C1)C(Cl)(Cl)Cl] | – | – | – | 0.319 | 0.101 | 0.29 | –
18 | CN1CCN(CC1)c2ccc(Nc3nc(nc(n3)C(Cl)(Cl)Cl)C(Cl)(Cl)Cl)cc2 [Compound 731] | 263 | 165 | 229 | – | – | – | –
19 | CS(=O)(=O)c1ccc(-c2nc(NCCc3ccncc3)nc(C(Cl)(Cl)Cl)n2)cc1 [Cmpd 178] | 518 | 162 | 392 | – | – | – | –
20 | CC(C)(N)CNc1nc(-c2ccc(Cl)cc2)nc(C(Cl)(Cl)Cl)n1 [Cmpd 284] | 18 | 3 | 12 | – | – | – | –
21 | CC(C)CN1CCC(Nc2nc(-c3ccc(Cl)cc3)nc(C(Cl)(Cl)Cl)n2)CC1 [Compound 693, CC(C)CN1CCC(CC1)NC1═NC(═NC(═N1)C(Cl)(Cl)Cl)C1═CC═C(Cl)C═C1] | 69 | 29 | 37 | – | – | – | –
22 | CC(C)CN1CCC(CC1)NC1═NC(═NC(═N1)C1═CC═C(C═C1)C1═CC═CC═C1)C(Cl)(Cl)Cl [Compound 699] | 746 | 430 | 564 | – | – | – | –
23 | COc1ccc(-c2nc(NCC3(N)CCCC3)nc(C(Cl)(Cl)Cl)n2)cc1OC [Compound 674, COC1═C(OC)C═C(C═C1)C1═NC(NCC2(N)CCCC2)═NC(═N1)C(Cl)(Cl)Cl] | 18 | 6 | 8 | – | – | – | –
24 | CN1CCN(c2nc(-c3ccccc3[N+](=O)[O-])nc(C(Cl)(Cl)Cl)n2)CC1 [Cmpd 549] | – | – | – | 0.663 | 0.236 | 0.503 | –

Row | Compound | C235 ([1]; SYBR Green Assay) [ng/mL] | W2 ([2]; SYBR Green Assay) [ng/mL] | D6 ([3]; SYBR Green Assay) [ng/mL] | C235 (SYBR Green Assay IC50) [1] [µg/mL] | W2 (SYBR Green Assay IC50) [2] [µg/mL] | D6 (SYBR Green Assay IC50) [3] [µg/mL] | further results
25 | COc1ccc(-c2nc(NCCc3ccncc3)nc(C(Cl)(Cl)Cl)n2)cc1 [Cmpd 147] | 233 | 77 | 155 | – | – | – | –
26 | CCN(CC)CCNc1nc(Cc2cccc(OC)c2)nc(C(Cl)(Cl)Cl)n1 [Cmpd 243] | 128 | 123 | 199 | – | – | – | –
27 | CN1CCC(Nc2nc(-c3ccc(F)cc3)nc(C(Cl)(Cl)Cl)n2)CC1 [Cmpd 385] | – | – | – | 0.057 | 0.039 | 0.028 | –
28 | CSc1ccc(-c2nc(NCC3CCN(C(C)C)CC3)nc(C(Cl)(Cl)Cl)n2)cc1 [Cmpd 490] | – | – | – | 0.067 | 0.049 | 0.091 | –
29 | Clc1ccc(cc1Cl)c2nc(nc(n2)C(Cl)(Cl)Cl)N3CC4CC3CN4 [Compound 716] | 439.4 | 335.2 | 540.4 | – | – | – | –
30 | CC(=O)N1CCN(c2nc(-c3ccc(Cl)c(Cl)c3)nc(C(Cl)(Cl)Cl)n2)CC1 [Example 3, 1-(4-(4-(3,4-dichlorophenyl)-6-(trichloromethyl)-1,3,5-triazin-2-yl)piperazin-1-yl)ethan-1-one] | – | – | – | – | – | – | IC50 [1, 4]: 0.535 µg/mL (≈ 1.14 µM); IC50 [2, 4]: 0.198 µg/mL (≈ 0.422 µM); IC50 [3, 4]: 0.687 µg/mL (≈ 1.46 µM)
31 | COc1cc(OC)cc(-c2nc(NCC3(N)CCCC3)nc(C(Cl)(Cl)Cl)n2)c1 [Cmpd 530] | – | – | – | 0.013 | 0.014 | 0.013 | –
32 | OCCN1CCN(c2nc(-c3ccc(-c4ccccc4)cc3)nc(C(Cl)(Cl)Cl)n2)CC1 [Cmpd 308] | 126 | 24 | 52 | – | – | – | –
33 | Cc1ccc(-c2nc(NCCc3ccncc3)nc(C(Cl)(Cl)Cl)n2)cc1 [Cmpd 145] | 344 | 94 | 168 | – | – | – | –
34 | CN(CC(=O)OC(C)(C)C)c1nc(-c2ccc(Cl)cc2)nc(C(Cl)(Cl)Cl)n1 [Compound 687, CN(CC(═O)OC(C)(C)C)c1nc(nc(n1)C(Cl)(Cl)Cl)c2ccc(Cl)cc2] | 501 | 501 | 501 | – | – | – | –
35 | CSc1ccc(cc1)c2nc(nc(n2)C(Cl)(Cl)Cl)N3CC4CC3CN4 [Compound 723] | 118 | 92 | 128 | – | – | – | –
36 | CN1CCC(CNc2nc(-c3ccc(C(C)(C)C)cc3)nc(C(Cl)(Cl)Cl)n2)CC1 [Cmpd 507] | – | – | – | 0.043 | 0.039 | 0.043 | –
37 | CCN1CCCC(Nc2nc(-c3ccc(N4CCCC4)cc3)nc(C(Cl)(Cl)Cl)n2)C1 (stereo not drawn) [Cmpd 429] | – | – | – | 0.912 | 0.607 | 0.791 | –
38 | CS(=O)(=O)c1ccc(-c2nc(NCCNCCO)nc(C(Cl)(Cl)Cl)n2)cc1 [Cmpd 98] | 554 | 366 | 448 | – | – | – | –
39 | Clc1cccc(-c2nc(NCCc3cnccn3)nc(C(Cl)(Cl)Cl)n2)c1 [Cmpd 472] | – | – | – | 0.244 | 0.051 | 0.449 | –
40 | COc1cc(OC)cc(-c2nc(NCC3CCN(C)CC3)nc(C(Cl)(Cl)Cl)n2)c1 [Cmpd 521] | – | – | – | 0.023 | 0.014 | 0.045 | –
41 | COc1ccc(Nc2nc(NCCC3CCCN3C)nc(C(Cl)(Cl)Cl)n2)cn1 (stereo not drawn) [Cmpd 341] | 10 | 5 | 7 | – | – | – | –
42 | CS(═O)(═O)c1ccc(cc1)c2nc(Nc3cccnc3)nc(n2)C(Cl)(Cl)Cl [Compound 654] | 271 | 185 | 198 | – | – | – | –
43 | COc1ccc(-c2nc(N3CCCN(CCO)CC3)nc(C(Cl)(Cl)Cl)n2)c2ccccc12 [Cmpd 463] | – | – | – | 0.306 | 0.201 | 0.355 | –
44 | COc1ncccc1Nc1nc(N2CCCN(C)CC2)nc(C(Cl)(Cl)Cl)n1 [Cmpd 379] | – | – | – | 0.159 | 0.092 | 0.066 | –
45 | OCCN1CCCN(c2nc(-c3ccc(Cl)cc3)nc(C(Cl)(Cl)Cl)n2)CC1 [Cmpd 455] | – | – | – | 0.118 | 0.065 | 0.214 | –
46 | CC(C)(C)c1ccc(-c2nc(NCCN3CCCC3)nc(C(Cl)(Cl)Cl)n2)cc1 [Cmpd 246] | 35 | 59 | 48 | – | – | – | –
47 | COc1ccc(-c2nc(NCCN3CCCC3)nc(C(Cl)(Cl)Cl)n2)c2ccccc12 [Cmpd 278] | 48 | 17 | 35 | – | – | – | –
48 | COc1ccc(-c2nc(NCc3ccccn3)nc(C(Cl)(Cl)Cl)n2)cc1 [Cmpd 168] | 898 | 338 | 755 | – | – | – | –

Source: patent US9334246B2, “Substituted triazines for malaria treatment and chemoprophylaxis” (The United States of America, as represented by the …, priority 2013, dated 2016)
